# US20200237626A1, “Anti-Aging Corrective and Protective Formulation and Methods” (JAMRM, LLC, priority 2019, published 2020)
# System: human skin cells (HEKn keratinocytes)
# Assay: Urban Dust induced lipid peroxidation
# Assay type: cell-based
# Details: after 4 hours, test sample 5%
# Method: A third-party testing facility conducted tests to determine the effects of standardized Urban Dust particulates (NIST® SRM® 1649b) on the production of free radicals and lipid peroxidation in human skin cells (HEKn keratinocytes). Tests were conducted at 1 hour, 2 hours and 3 hours with varying concentrations of the test samples (1%, 3%, and 5%) (i.e. at one hour intervals) to measure intracellular reactive oxygen species and after 4 hours with test sample (5%) for lipid peroxidation. A fluorescent plate reader was utilized to measure a fluorescent dye incubated in all test conditions which measures intracellular reactive oxygen species and lipid peroxidation. The measurement is expressed as the mean relative fluorescent unit (RFU). FIG. 4B illustrates by bar graph the effects of the Urban Dust on tissue. Non-exposed tissue has immeasurably low RFU. The urban dust exposed cells have an increase in lipid peroxidation with 0.2 RFU.
compound,measurement,setting,value
Cc1c(C)c2c(c(C)c1O)CCC(C)(C(=O)O)O2 (centres unmarked) [Trolox],Lipid peroxidation (mean RFU),"exposed to Urban Dust, Urban Dust alone 0.2 RFU",about 0.05 RFU
same,Reduction in lipid peroxidation,vs Urban Dust exposed cells,67%
